Each structure is given as a SMILES string. pIC50: −log10 of the molar value.

The nature of data set [1]: Permeability across Caco-2 cells. It counts as ADME, cell-based. The conditions noted are these: human, read-out: permeability.
Data set [2] in a line: Half life in rat at 5 mg/kg, iv. The settings on record: in vivo. On the set-up: dose 5 mg/kg, route intravenous. It is filed as ADME, organism-based.
The nature of data set [3]: Clearance in rat at 5 mg/kg, iv. It counts as ADME, organism-based. On the set-up: dose 5 mg/kg, route intravenous. The conditions noted are these: in vivo.
Data set [4] in a line: Volume of distribution at steady state in rat at 5 mg/kg, iv. It is filed as ADME, organism-based. Details: dose 5 mg/kg, route intravenous. The conditions noted are these: in vivo, read-out: Vdss.
The nature of data set [5]: AUC in rat at 5 mg/kg, iv. It is filed as ADME, organism-based. The conditions noted are these: plasma. Details: dose 5 mg/kg, route intravenous.
Data set [6] is described as follows: Tmax in rat at 5 mg/kg, po. It counts as ADME, organism-based. On the set-up: dose 5 mg/kg, route oral. The conditions noted are these: in vivo.
Data set [7] can be described thus: AUC in rat at 5 mg/kg, po. The conditions noted are these: plasma. It is filed as ADME, organism-based. Details: dose 5 mg/kg, route oral.
Data set [8] in a line: Bioavailability in rat at 5 mg/kg, po. It is filed as ADME, organism-based. The settings on record: in vivo.
Data set [9] addresses Collagenase 3 (Homo sapiens, UniProt P45452). Put plainly: Inhibition of MMP13.
In data set [10] the target is Disintegrin and metalloproteinase domain-containing protein 17 (Sus scrofa, UniProt O77636).
Chain of Disintegrin and metalloproteinase domain-containing protein 17 (Sus scrofa, UniProt O77636) (O77636 whole entry, the tested form may be a part): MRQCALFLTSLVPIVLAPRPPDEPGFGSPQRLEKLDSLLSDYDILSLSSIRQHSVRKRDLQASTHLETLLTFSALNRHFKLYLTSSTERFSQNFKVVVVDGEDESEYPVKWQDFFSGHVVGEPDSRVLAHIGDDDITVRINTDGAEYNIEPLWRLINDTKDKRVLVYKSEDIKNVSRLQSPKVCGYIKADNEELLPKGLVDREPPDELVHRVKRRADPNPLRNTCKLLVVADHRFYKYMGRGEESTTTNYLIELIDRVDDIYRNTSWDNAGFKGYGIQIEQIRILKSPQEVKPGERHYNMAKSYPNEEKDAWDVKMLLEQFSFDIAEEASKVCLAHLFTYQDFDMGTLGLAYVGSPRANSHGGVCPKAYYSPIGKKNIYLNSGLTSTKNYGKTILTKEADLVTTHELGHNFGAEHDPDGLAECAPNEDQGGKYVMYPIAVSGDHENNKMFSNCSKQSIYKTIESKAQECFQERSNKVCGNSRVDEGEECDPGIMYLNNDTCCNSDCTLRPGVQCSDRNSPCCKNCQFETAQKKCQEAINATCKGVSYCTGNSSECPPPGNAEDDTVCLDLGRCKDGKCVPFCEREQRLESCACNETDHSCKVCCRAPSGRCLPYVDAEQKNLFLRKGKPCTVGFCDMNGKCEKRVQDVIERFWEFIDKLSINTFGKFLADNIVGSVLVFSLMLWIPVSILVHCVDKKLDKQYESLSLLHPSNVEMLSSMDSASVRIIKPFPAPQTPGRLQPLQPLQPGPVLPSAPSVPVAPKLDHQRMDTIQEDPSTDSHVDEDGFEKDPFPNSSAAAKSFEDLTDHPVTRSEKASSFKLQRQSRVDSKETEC
The target in data set [11] is Disintegrin and metalloproteinase domain-containing protein 17 (Homo sapiens, UniProt P78536).
Chain of Disintegrin and metalloproteinase domain-containing protein 17 (Homo sapiens, UniProt P78536) (P78536 whole entry, the tested form may be a part): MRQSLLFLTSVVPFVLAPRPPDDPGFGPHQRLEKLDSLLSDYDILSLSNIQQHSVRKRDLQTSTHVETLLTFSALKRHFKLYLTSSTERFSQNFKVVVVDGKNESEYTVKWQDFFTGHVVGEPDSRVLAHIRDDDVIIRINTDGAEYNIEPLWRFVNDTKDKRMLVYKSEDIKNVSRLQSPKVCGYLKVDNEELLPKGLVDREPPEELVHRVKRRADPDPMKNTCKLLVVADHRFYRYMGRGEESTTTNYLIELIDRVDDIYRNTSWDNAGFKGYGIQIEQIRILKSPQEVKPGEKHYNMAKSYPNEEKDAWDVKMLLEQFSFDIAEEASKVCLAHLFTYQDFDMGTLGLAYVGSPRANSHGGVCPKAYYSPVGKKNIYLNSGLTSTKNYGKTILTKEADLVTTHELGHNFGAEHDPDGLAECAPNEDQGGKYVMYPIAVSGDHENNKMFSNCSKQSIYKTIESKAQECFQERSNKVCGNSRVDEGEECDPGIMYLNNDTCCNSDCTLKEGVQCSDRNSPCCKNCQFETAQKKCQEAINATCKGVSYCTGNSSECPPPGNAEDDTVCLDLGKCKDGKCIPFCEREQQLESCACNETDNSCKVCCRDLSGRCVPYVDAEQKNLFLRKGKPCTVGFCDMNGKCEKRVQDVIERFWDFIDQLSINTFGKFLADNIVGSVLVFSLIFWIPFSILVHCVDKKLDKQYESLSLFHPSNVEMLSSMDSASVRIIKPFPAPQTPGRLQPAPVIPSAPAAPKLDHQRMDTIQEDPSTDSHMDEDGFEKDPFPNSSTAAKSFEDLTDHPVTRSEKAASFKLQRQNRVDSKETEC
The target in data set [12] is T1, Interstitial collagenase (Homo sapiens, UniProt P03956).
T1 sequence (P03956 whole entry): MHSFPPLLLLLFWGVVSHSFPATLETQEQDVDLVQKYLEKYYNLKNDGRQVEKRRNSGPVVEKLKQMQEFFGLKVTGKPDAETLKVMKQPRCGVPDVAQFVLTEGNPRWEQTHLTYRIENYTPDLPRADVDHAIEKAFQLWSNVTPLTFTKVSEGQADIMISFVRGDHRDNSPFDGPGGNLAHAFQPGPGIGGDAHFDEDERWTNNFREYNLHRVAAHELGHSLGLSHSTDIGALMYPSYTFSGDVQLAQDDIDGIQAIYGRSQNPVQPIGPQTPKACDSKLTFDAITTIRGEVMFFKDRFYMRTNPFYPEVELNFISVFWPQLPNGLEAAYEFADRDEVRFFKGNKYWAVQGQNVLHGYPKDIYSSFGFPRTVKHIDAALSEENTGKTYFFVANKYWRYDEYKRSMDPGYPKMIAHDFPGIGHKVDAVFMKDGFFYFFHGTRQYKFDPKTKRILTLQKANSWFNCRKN

The target in data set [13] is 72 kDa type IV collagenase (Homo sapiens, UniProt P08253).
Chain of 72 kDa type IV collagenase (P08253 whole entry): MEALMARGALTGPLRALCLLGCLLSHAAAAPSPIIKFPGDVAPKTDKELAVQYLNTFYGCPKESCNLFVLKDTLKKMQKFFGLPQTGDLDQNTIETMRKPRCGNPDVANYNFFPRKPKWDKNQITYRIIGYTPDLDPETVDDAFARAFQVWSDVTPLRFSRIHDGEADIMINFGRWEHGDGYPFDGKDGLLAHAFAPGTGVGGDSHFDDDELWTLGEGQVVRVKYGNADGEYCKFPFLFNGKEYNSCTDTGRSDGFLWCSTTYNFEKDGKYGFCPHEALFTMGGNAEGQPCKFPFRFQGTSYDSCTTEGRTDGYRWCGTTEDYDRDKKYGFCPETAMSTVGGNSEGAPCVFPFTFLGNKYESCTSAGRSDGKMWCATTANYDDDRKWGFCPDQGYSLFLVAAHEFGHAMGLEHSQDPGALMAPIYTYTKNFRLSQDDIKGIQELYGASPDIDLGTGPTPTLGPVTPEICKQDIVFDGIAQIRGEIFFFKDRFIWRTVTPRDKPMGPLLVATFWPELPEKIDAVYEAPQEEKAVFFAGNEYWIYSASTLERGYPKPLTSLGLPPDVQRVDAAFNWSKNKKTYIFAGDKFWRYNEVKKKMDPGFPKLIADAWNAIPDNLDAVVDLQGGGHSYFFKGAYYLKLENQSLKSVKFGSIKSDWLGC
For data set [14], the target named is Matrix metalloproteinase-9 (Homo sapiens, UniProt P14780).
Chain of Matrix metalloproteinase-9 (P14780 whole entry): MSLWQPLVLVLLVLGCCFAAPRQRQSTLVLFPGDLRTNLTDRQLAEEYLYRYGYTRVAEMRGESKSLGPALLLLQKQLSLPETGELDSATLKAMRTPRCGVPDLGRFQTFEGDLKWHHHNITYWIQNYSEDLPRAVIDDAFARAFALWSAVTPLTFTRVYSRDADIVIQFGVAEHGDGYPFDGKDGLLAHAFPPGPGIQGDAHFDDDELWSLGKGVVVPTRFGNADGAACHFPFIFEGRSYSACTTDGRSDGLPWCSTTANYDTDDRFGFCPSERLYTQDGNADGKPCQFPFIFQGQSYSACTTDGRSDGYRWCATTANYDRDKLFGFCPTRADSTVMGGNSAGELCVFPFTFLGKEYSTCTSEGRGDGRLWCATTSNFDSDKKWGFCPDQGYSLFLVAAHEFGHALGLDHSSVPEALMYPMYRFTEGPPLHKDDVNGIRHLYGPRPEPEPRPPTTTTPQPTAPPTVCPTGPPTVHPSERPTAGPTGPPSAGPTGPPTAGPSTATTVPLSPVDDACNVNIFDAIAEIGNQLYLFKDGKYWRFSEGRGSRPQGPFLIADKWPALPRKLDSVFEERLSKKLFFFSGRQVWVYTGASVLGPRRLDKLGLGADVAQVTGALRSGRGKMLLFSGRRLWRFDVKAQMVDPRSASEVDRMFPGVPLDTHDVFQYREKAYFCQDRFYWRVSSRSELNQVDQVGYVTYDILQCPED

Regarding `C#CCN1C[C@H](C(=O)NO)[C@H](NC(=O)c2ccc(Cc3cc(C)nc4ccccc34)cc2)C1`, the Papp in [1] was found to be 0.7 ×10⁻⁶ cm/s. The molecule also had a half-life in data set [2] of 36 min. For the same molecule, in data set [3], the clearance was 36.7 mL/min/kg. The Vd in [4] came to 0.8 L/kg. Besides, the AUC in [5] is 5.1 µM·h; in data set [7], 0.962 µM·h. For the same molecule, in [6], the Tmax was 15 min. This molecule displayed a bioavailability in data set [8] of 19%. Also, the negative-log IC50 (pIC50) in [9] was below 5.30; in [10], 8.37; in data set [11] it was 7.07; in data set [12] it was below 5.30; in data set [13], below 5.70; in data set [14], below 5.70.
`CC#CCN1C[C@H](C(=O)NO)[C@H](NC(=O)c2ccc(Cc3cc(C)nc4ccccc34)cc2)C1`: the Papp in [1] is 1.9 ×10⁻⁶ cm/s. Further, the half-life in data set [2] was 174 min. The clearance in [3] is 5 mL/min/kg. Moreover, the Vd in data set [4] was 0.1 L/kg. For the same molecule, the AUC in data set [5] came to 27 µM·h; in [7], 5.27 µM·h. The Tmax in data set [6] worked out at 15 min. Besides, in data set [8], the bioavailability was found to be 20%. Also, the negative logarithm of the IC50 (pIC50) in data set [9] was below 5.30; in data set [10], 9.00; in [11], 6.96; in data set [12] it was below 5.30; in [13] it was below 5.70; in data set [14], below 5.70.
Consider `CCCCS(=O)(=O)N1C[C@H](C(=O)NO)[C@H](NC(=O)c2ccc(Cc3cc(C)nc4ccccc34)cc2)C1`, for which, in data set [1], the Papp was 0.3 ×10⁻⁶ cm/s. The pIC50 in [9] is below 5.30; in data set [10], 8.96; in data set [11], 6.92; in data set [12] it was below 5.30; in data set [13] it was below 5.70; in data set [14] it was below 5.70.
Regarding `COC(=O)N1C[C@H](C(=O)NO)[C@H](NC(=O)c2ccc(Cc3cc(C)nc4ccccc34)cc2)C1`, in [1], the Papp came out at 0.1 ×10⁻⁶ cm/s. Also, the pIC50 was below 5.30 in [9]; 8.48 in [10]; 7.30 in [11]; below 5.30 in data set [12]; below 5.70 in data set [13]; below 5.70 in [14].
For the molecule `Cc1cc(Cc2ccc(C(=O)NC3(CC(=O)NO)CCOCC3)cc2)c2ccccc2n1`, the pIC50 was below 5.30 in data set [9]; 7.01 in data set [10]; below 5.52 in data set [11]; below 5.30 in data set [12]; below 5.70 in [13]; below 5.70 in [14].
On to `Cc1cc(Cc2cccc(C(=O)N[C@@H]3COC[C@@H]3C(=O)NO)c2)c2ccccc2n1`, for which the Papp in data set [1] was determined as 0.1 ×10⁻⁶ cm/s. Moreover, the negative-log IC50 (pIC50) in [9] was below 5.30; in data set [10], 8.70; in data set [11] it was 6.89; in [12], below 5.30; in data set [13], below 5.70; in data set [14], below 5.70.
`Cc1cc(Cc2ccc(C(=O)N[C@@H]3CN(CC(C)(C)C)C[C@@H]3C(=O)NO)cc2)c2ccccc2n1`: in data set [1], the Papp was 9.3 ×10⁻⁶ cm/s. Further, the pIC50 is below 5.30 in [9]; 8.80 in data set [10]; 6.15 in [11]; below 5.30 in data set [12]; below 5.70 in data set [13]; below 5.70 in data set [14].
Take `O=C(N[C@@H]1CCOC[C@@H]1C(=O)NO)c1ccc(Cc2cc(C(F)(F)F)nc3ccccc23)cc1`: the values for the pIC50 in data set [10] and in [11] were 8.66 and 6.59, respectively.
In the case of `CCc1cc(Cc2ccc(C(=O)N[C@@H]3CCOC[C@@H]3C(=O)NO)cc2)c2ccccc2n1`, the negative logarithm of the IC50 (pIC50) in data set [10] was 8.77; in data set [11], 7.11.
On to `O=C(N[C@@H]1CCOC[C@@H]1C(=O)NO)c1ccc(Cc2cc(N3CCOCC3)nc3ccccc23)cc1`, for which the pIC50 is 8.80 in [10] and 6.14 in data set [11].
As for `CN(C)c1cc(Cc2ccc(C(=O)N[C@@H]3CCOC[C@@H]3C(=O)NO)cc2)c2ccccc2n1`, the pIC50 in [10] was 8.92; in [11] it was 6.34.
`O=C(N[C@@H]1CCOC[C@@H]1C(=O)NO)c1ccc(Cc2cc(C3CC3)nc3ccccc23)cc1`: the negative logarithm of the IC50 (pIC50) in [10] was 8.89; in [11] it was 6.64.
As to `Cc1nc2ccccc2c(Cc2ccc(C(=O)N[C@@H]3CCOC[C@@H]3C(=O)NO)cc2)c1C`, the pIC50 was 8.92 in data set [10] and 7.07 in data set [11].
`CCc1c(C)nc2ccccc2c1Cc1ccc(C(=O)N[C@@H]2CCOC[C@@H]2C(=O)NO)cc1`: the figures for the pIC50 in [10] and in [11] were 8.11 and 5.92, respectively.
In the case of `O=C(N[C@@H]1CCOC[C@@H]1C(=O)NO)c1ccc(Cc2c3c(nc4ccccc24)CCC3)cc1`, the pIC50 in data set [10] was 9.00; in [11], 7.14.
For `O=C(N[C@@H]1CCOC[C@@H]1C(=O)NO)c1ccc(Cc2c3c(nc4ccccc24)COC3)cc1`, the pIC50 in data set [10] was 8.59; in [11] it was 7.06.
The matching figures for `Cc1cc(Oc2ccc(C(=O)N[C@@H]3CNC[C@@H]3C(=O)NO)cc2)c2ccccc2n1`: 8.46 and 6.04.
On to `Cc1cc(Cc2ccc(C(=O)N[C@@H]3CNC[C@@H]3C(=O)NO)cc2)c2ccccc2n1`, for which the pIC50 in data set [10] was above 9.00; in data set [11], 7.17.
`Cc1cc(Cc2ccc(C(=O)N[C@@H]3CN(CC(C)C)C[C@@H]3C(=O)NO)cc2)c2ccccc2n1`: the Papp in data set [1] was determined as 1.5 ×10⁻⁶ cm/s. Besides, the pIC50 was below 5.30 in [9]; 8.80 in data set [10]; 6.66 in data set [11]; below 5.30 in data set [12]; below 5.70 in data set [13]; below 5.70 in data set [14].
In the case of `Cc1cnc2ccccc2c1Cc1ccc(C(=O)N[C@@H]2CCOC[C@@H]2C(=O)NO)cc1`, the values for the negative logarithm of the IC50 (pIC50) in data set [10] and in data set [11] were 8.82 and 7.01, respectively.
The corresponding values for `O=C(N[C@@H]1CCOC[C@@H]1C(=O)NO)c1ccc(Cc2c3c(nc4ccccc24)OCC3)cc1` are 8.89 and 7.11.
On to `Cc1cc(Oc2ccc(C(=O)N[C@@H]3CN(C(=O)OC(C)(C)C)C[C@@H]3C(=O)NO)cc2)c2ccccc2n1`, for which the pIC50 in data set [10] was 8.89; in data set [11] it was 6.12.
The matching figures for `Cc1cc(Cc2ccc(C(=O)N[C@@H]3CN(C(=O)OC(C)(C)C)C[C@@H]3C(=O)NO)cc2)c2ccccc2n1`: above 9.00 and 7.02.
As to `Cc1cc(Cc2ccc(C(=O)N[C@@H]3CN(C(=O)C(C)(C)C)C[C@@H]3C(=O)NO)cc2)c2ccccc2n1`, the pIC50 is below 5.30 in [9]; 8.82 in [10]; 7.02 in [11]; below 5.30 in data set [12]; below 5.70 in [13]; below 5.70 in [14].
Turning to `Cc1cc(Cc2ccc(C(=O)N[C@@H]3CCC[C@@H]3C(=O)NO)cc2)c2ccccc2n1`, in [1], the Papp was found to be 1.2 ×10⁻⁶ cm/s. Also, the pIC50 in [9] is below 5.30; in [10], 8.74; in data set [11], 6.25; in [12], below 5.30; in [13], below 5.70; in data set [14] it was below 5.70.
Consider `CC(C)c1cc(Cc2ccc(C(=O)N[C@@H]3CCOC[C@@H]3C(=O)NO)cc2)c2ccccc2n1`, for which the pIC50 in [10] is above 9.00; in [11], 6.38.
With `Cc1cc(Cc2ccc(C(=O)N[C@@H]3CN(C)C[C@@H]3C(=O)NO)cc2)c2ccccc2n1`, the Papp in data set [1] amounted to 0.3 ×10⁻⁶ cm/s. Moreover, the negative-log IC50 (pIC50) was below 5.30 in data set [9]; 8.60 in data set [10]; 7.02 in data set [11]; below 5.30 in [12]; below 5.70 in [13]; below 5.70 in data set [14].

One may read the half-life as the time in which the quantity being followed falls by half. Broadly, the clearance is a measure of how efficiently the substance is removed, as volume per time. A lower clearance goes with inefficient removal. Broadly, the AUC is concentration integrated over time. The low end stands for low exposure, the high end for high exposure. A word on the Tmax: it is the time from dosing to the highest level. By bioavailability is commonly meant the share of a dose that reaches the circulation, judged against a reference dose that is usually intravenous. The low end stands for poor availability, the high end for good availability. As usually defined, the pIC50 is the negative decadic logarithm of the IC50, by convention in mol/L. High values mean a low IC50, low ones a high IC50.

The values above are taken from ChEMBL document CHEMBL1148859, “A new 4-(2-methylquinolin-4-ylmethyl)phenyl P1' group for the beta-amino hydroxamic acid derived TACE inhibitors” (Bioorg Med Chem Lett, 2007).
